We go through 2 compounds from US20120238447A1 (priority 2009, published 2012).

The subject of one experiment is Pyricularia oryzae. The class given is cell-based. The settings on record: MTP, 405 nm, 7 days after inoculation, 18° C, efficacy from relative growth in %.
Another experiment has as its system Septoria tritici. Kind of experiment: Activity against leaf blotch on wheat caused by Septoria tritici (microtiter plate test). The note with it: MTP, 405 nm, 7 days after inoculation, 18° C. Format: cell-based.

Where two headings read alike, the source gives them in different places.

Consider `COC(=O)N(OC)c1ccccc1COc1ccn(-c2ccc(Cl)cc2)n1` [pyraclostrobin], for which the Observed efficacy in the experiment with Pyricularia oryzae (pyraclostrobin alone, 0.004 ppm) is listed as 23; in the experiment on Septoria tritici (Pyraclostrobin alone, 0.001 ppm), 7.
With `CCOC(=O)CSc1nc(C(C)(C)C)nn1C(=O)N(C)C` [triazamat, triazamate], the Observed efficacy is 4 in the experiment on Pyricularia oryzae (triazamat alone, 1 ppm) and 4 with Septoria tritici (Triazamat alone, 0.25 ppm).
